Consider 19 compounds from patent publication US20260001879A1, “COMPOUNDS AS MYT1 INHIBITORS” (WIGEN BIOMMEDICINE TECHNOLOGY (SHANGHAI) CO., LTD., priority 2022, published 2026).

A short description of series [1]: In vitro permeability experiment, MDCK wild type cells. Particulars: dog. As for the experimental part: (§1) In vitro passive permeability or the ability to serve as a P-glycoprotein (P-gp) transport substrate was tested using MDCK cells (MDCK wild type) or MDCK cells stably transduced with MDRI (MDCK-MDRI), respectively. The permeability experiment was performed in duplicate in a transwell system at a single concentration (5 μM). The cells were incubated for […] Apical-to-basolateral (A to B, A-B) transport and basolateral-to-apical (B to A, B-A) transport of the corresponding compound were determined, and the permeation rate (apparent permeability) (Papp×10^−6 cm/sec) and efflux ratio (Papp (B−A)/Papp (A−B)) of the test compound were calculated.

For series [2], the system named is P-glycoprotein (P-gp, MDR1). The experiment in a line: in vitro. Particulars: dog; for Papp A→B / Papp B→A: 5 μM. The method, then:
as §1

Series [3] concerns the target recombinant protein MYT1 (Homo sapiens (Human), UniProt Q99640). The experiment in a line: In vitro assay for inhibiting MYT1 kinase activity (ADP-GLO). The conditions noted are these: 10 μM ATP, read-out: Inhibitory activity against recombinant protein MYT1 IC50. The series is classed as biochemical. As for the experimental part:
Recombinant MYT1 protein and the compounds were pre-incubated at room temperature for 15 min, and 10 μM ATP was then added to start the reaction. The mixture was incubated at room temperature for another 60 min, and the ADP-GLO reagent from Promega was then added. The resulting mixture was incubated in the dark for 40 min, a detection solution was then added, and the mixture was incubated for another 45-60 min. The chemiluminescence was determined using ENVISION. The inhibition rate and IC50 were calculated compared to the DMSO group.

Series [4] deals with MIA PaCa-2 cells. The experiment in a line: In vitro anti-proliferative activity against MIA PaCa-2 cells (compound alone). The series is classed as cell-based. The conditions noted are these: intracellular ATP content. The method, then:
MIA PaCa-2 cells were seeded on a 384-well plate at 3000 cells/well. After overnight adherence culture, DMSO or the compounds serially diluted 1:5 from 10 μM were added. The viability was assessed 72 h after dosing by measuring the intracellular ATP content. The inhibition percentage of viable cells by the compounds was calculated by comparing with the DMSO group, and the IC50 value was calculated.

Series [5] deals with MIA PaCa-2 cells. Briefly: In vitro anti-proliferative activity in combination with gemcitabine against MIA PaCa-2 cells. The series is classed as cell-based. The method, then: MIA PaCa-2 cells were seeded on a 384-well plate at 3000 cells/well, and 20 nM gemcitabine was added. After overnight adherence culture, DMSO or the compounds serially diluted 1:5 from 1000 nM were added. The viability was assessed 72 h after dosing by measuring the intracellular ATP content. The inhibition percentage of viable cells by the compounds was calculated by comparing with the DMSO group, and the IC50 value was calculated.

Setting [6] is: read-out: Anti-proliferative activity against MIA PaCa-2 cells (20 nM gemcitabine) IC50, with 20 nM gemcitabine, 72 h, intracellular ATP content.
The mark [7] stands for this setting: Homo sapiens, MIA PaCa-2, 72 h, read-out: Anti-proliferative activity against MIA PaCa-2 cells (20 nM gemcitabine) IC50, with 20 nM gemcitabine, 72 h, intracellular ATP content.

recombinant protein MYT1, sequence (Q99640 whole entry): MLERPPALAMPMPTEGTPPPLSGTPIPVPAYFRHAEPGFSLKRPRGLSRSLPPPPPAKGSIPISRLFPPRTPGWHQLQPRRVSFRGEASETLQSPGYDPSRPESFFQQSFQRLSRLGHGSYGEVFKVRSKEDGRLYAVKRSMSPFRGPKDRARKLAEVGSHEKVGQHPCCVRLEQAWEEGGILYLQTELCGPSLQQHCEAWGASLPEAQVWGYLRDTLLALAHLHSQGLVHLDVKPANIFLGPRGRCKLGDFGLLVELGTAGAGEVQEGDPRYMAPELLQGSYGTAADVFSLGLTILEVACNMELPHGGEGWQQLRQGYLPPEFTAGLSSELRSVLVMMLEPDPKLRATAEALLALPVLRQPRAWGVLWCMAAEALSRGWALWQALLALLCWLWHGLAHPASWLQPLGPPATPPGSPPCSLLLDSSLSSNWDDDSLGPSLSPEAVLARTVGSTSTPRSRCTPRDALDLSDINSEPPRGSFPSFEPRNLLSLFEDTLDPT

What is called Papp A→B is the apparent permeability from the apical to the basolateral side of a cell layer. A lower Papp A→B goes with poor permeation. The Papp B→A is the apparent permeability from the basolateral to the apical side of a cell layer. Take `COCCc1ccc(OCC(O)CNC(C)C)cc1` (stereo not shown) [Metoprolol, metoprolol]: the Papp A→B at 90 min, 5 µM in series [1] (Papp A-B Mean, MDCK-Wild type, A-B, 5 μM, mean) is 24.3 ×10⁻⁶ cm/s; in series [1] (Papp A-B Sample - 01, MDCK-Wild type, A-B, 5 μM, replicate 01) it was 26.5 ×10⁻⁶ cm/s; in series [1] (Papp A-B Sample - 02, MDCK-Wild type, A-B, 5 μM, replicate 02) it was 22.2 ×10⁻⁶ cm/s. For the same compound, the Papp B→A at 90 min, 5 µM in series [1] (Papp B-A Mean, MDCK-Wild type, B-A, 5 μM, mean) stood at 21.3 ×10⁻⁶ cm/s; in series [1] (Papp B-A Sample - 01, MDCK-Wild type, B-A, 5 μM, replicate 01), 18.6 ×10⁻⁶ cm/s; in series [1] (Papp B-A Sample - 02, MDCK-Wild type, B-A, 5 μM, replicate 02), 24 ×10⁻⁶ cm/s. Besides, the Papp A→B in series [2] (MDCK-MDR1, Papp A-B Mean, MDCK-MDR1, A-B, mean) came to 37 ×10⁻⁶ cm/s; in series [2] (MDCK-MDR1, Papp A-B Sample - 01, MDCK-MDR1, A-B, replicate 01), 37.6 ×10⁻⁶ cm/s; in series [2] (MDCK-MDR1, Papp A-B Sample - 02, MDCK-MDR1, A-B, replicate 02), 36.3 ×10⁻⁶ cm/s. Besides, the Papp B→A in series [2] (MDCK-MDR1, Papp B-A Mean, MDCK-MDR1, B-A, mean) is 20.1 ×10⁻⁶ cm/s; in series [2] (MDCK-MDR1, Papp B-A Sample - 01, MDCK-MDR1, B-A, replicate 01), 20.1 ×10⁻⁶ cm/s; in series [2] (MDCK-MDR1, Papp B-A Sample - 02, MDCK-MDR1, B-A, replicate 02), 20.2 ×10⁻⁶ cm/s.
In general, IC50 refers to the concentration needed to halve the response being measured. For the compound `Cc1cc2c(C(N)=O)c(N)n(-c3c(C)c(O)cc(F)c3C)c2nc1C` (single isomer, unassigned) [Compound 3], the IC50 in series [3] is at most 200 nM; in series [4] (72 h), over 10000 nM; in series [5] (setting [6]), 1230 nM.
Take `Cc1ccc(O)c(C)c1-n1c(N)c(C(N)=O)c2cc3c(nc21)COC3` [Compound 17]: the IC50 in series [3] was at most 200 nM; in series [4] (72 h) it was over 10000 nM; in series [5] (setting [6]) it was over 1000 nM.
For `Cc1cc2c(C(N)=O)c(N)n(-c3c(C)ccc(O)c3C)c2nc1C#N` [Compound 12], the IC50 in series [3] is at most 200 nM; in series [5] (setting [7]), 228 nM.
For the compound `Cc1ccc(O)c(C)c1-n1c(N)c(C(N)=O)c2cc(C#N)c(C)nc21` [Compound 11], the IC50 in series [3] was at most 200 nM; in series [4] (72 h) it was over 10000 nM; in series [5] (setting [6]), over 1000 nM.
For the compound `Cc1cc2c(C(N)=O)c(N)n(-c3c(C)cc4cc[nH]c4c3C)c2nc1C` [Compound 153], the IC50 in series [3] was at most 200 nM; in series [5] (setting [7]), over 1000 nM.
For `Cc1ccc(O)c(C)c1-n1c(N)c(C(N)=O)c2cc3c(nc21)CCN(C)C3` (atropisomer, axis not shown) [Compound 98], the figures for the IC50 in series [3], in series [4] (72 h) and in series [5] (setting [6]) were at most 200 nM, over 10000 nM and over 1000 nM, respectively.
In general, efflux ratio refers to the permeability from basolateral to apical divided by that in the opposite direction, in the common usage. As for `C[C@H]1O[C@@H](O[C@H]2[C@@H](O)C[C@H](O[C@H]3[C@@H](O)C[C@H](O[C@H]4CC[C@@]5(C)[C@H](CC[C@@H]6[C@@H]5C[C@@H](O)[C@]5(C)[C@@H](C7=CC(=O)OC7)CC[C@]65O)C4)O[C@@H]3C)O[C@@H]2C)C[C@H](O)[C@@H]1O` [Digoxin], the efflux ratio at 90 min, 5 μM turned out to be 2.69 in series [1] (MDCK) and 21.4 in series [2] (MDCK-MDR1). Further, the Papp A→B at 90 min, 5 µM in series [1] (MDCK, Papp A-B Mean) was determined as 1.79 ×10⁻⁶ cm/s; in series [1] (MDCK, Papp A-B Sample - 01), 1.9 ×10⁻⁶ cm/s; in series [1] (MDCK, Papp A-B Sample - 02), 1.68 ×10⁻⁶ cm/s; in series [2] (MDCK-MDR1, Papp A-B Mean), 0.96 ×10⁻⁶ cm/s; in series [2] (MDCK-MDR1, Papp A-B Sample - 01), 0.96 ×10⁻⁶ cm/s; in series [2] (MDCK-MDR1, Papp A-B Sample - 02), 0.96 ×10⁻⁶ cm/s. Moreover, the Papp B→A at 90 min, 5 µM in series [1] (MDCK, Papp B-A Mean) was 4.8 ×10⁻⁶ cm/s; in series [1] (MDCK, Papp B-A Sample - 01), 4.64 ×10⁻⁶ cm/s; in series [1] (MDCK, Papp B-A Sample - 02), 4.96 ×10⁻⁶ cm/s; in series [2] (MDCK-MDR1, Papp B-A Mean) it was 20.6 ×10⁻⁶ cm/s; in series [2] (MDCK-MDR1, Papp B-A Sample - 01), 17.7 ×10⁻⁶ cm/s; in series [2] (MDCK-MDR1, Papp B-A Sample - 02), 23.5 ×10⁻⁶ cm/s.
Regarding `Cc1cc2c(C(N)=O)c(N)n(-c3c(C)c(O)cc4c3CCC4)c2nc1C` [Compound 116], in series [5] (setting [7]), the IC50 was over 1000 nM.
In the case of `Cc1cc2c(C(N)=O)c(N)n(-c3c(C)c(O)cc4c3CCC4)c2nc1C` (atropisomer, axis not shown) [Compound 117], the IC50 in series [5] (setting [6]) was over 1000 nM.
Regarding `Cc1cc2c(C(N)=O)c(N)n(-c3c(C)cc(F)c(O)c3Cl)c2nc1C` [Compound 8], the IC50 in series [3] is at most 200 nM.
For `Cc1cc2c(C(N)=O)c(N)n(-c3c(C)c(F)cc(O)c3Cl)c2nc1C` [Compound 25], the IC50 in series [3] was at most 200 nM.
Still for that read-out and setting: the value for `Cc1ccc(O)c(C)c1-n1c(N)c(C(N)=O)c2cc3scnc3nc21` [Compound 70] was at most 200 nM.
On the same count and under the same terms, the same measure for `Cc1cc2c(C(N)=O)c(N)n(-c3c(C)c(O)cc(F)c3C)c2cc1C#N` [Compound 166]: at most 200 nM; for `Cc1cc2c(C(N)=O)c(N)n(-c3c(C)cnc(O)c3C)c2nc1C` [Compound 177]: at most 200 nM; for `Cc1ccc(O)c(C)c1-n1c(N)c(C(N)=O)c2cc3c(nc21)OCCC3` [Compound 35]: at most 200 nM.
On the same count and under the same terms, the same measure for `Cc1cc2c(C(N)=O)c(N)n(-c3c(C)c(O)cc(C#N)c3C)c2nc1C` [Compound 220]: at most 200 nM.
Take `Cc1ccc(O)c(C)c1-n1c(N)c(C(N)=O)c2cc3c(nc21)CCN(C)C3` [Compound 97]: the IC50 in series [3] is at most 200 nM; in series [4] (Homo sapiens, MIA PaCa-2, 72 h), over 10000 nM; in series [5] (setting [6]) it was 101 nM.
In the case of `Cc1cc2c(C(N)=O)c(N)n(-c3c(C)cc(F)c(O)c3C)c2cc1C#N` [Compound 169], in series [3], the IC50 was at most 200 nM.
